Results published in patent US11395857B2, “Radiolabeled melanocortin 1 receptor-specific alpha-melanocyte-stimulating hormone analogues for imaging or therapy” (PROVINCIAL HEALTH SERVICES AUTHORITY, priority 2018, dated 2022).
Where two headings read alike, the source gives them in different places.

How the values were obtained:
[1] = system: B16F10 mouse melanoma; test: Biodistribution of 177Lu-labeled αMSH analogues in mice bearing B16F10 mouse melanoma; assay type: in vivo, C57BL/6J mice; details: C57BL/6J mice, B16F10 melanoma
Protocol: (§1) The B16-F10 mouse melanoma cells were cultured and inoculated in mice as described in Example 1.
(§2) For biodistribution studies, approximately 1-2 MBq of ^177Lu-labeled αMSH analogues via tail vein under anesthesia. At 1, 4, 24, and 120 h p.i., the mice were euthanized by CO2 inhalation. Organs/tissues were harvested and the radioactivity was measured as described in Example 1.

[2] = as above; assay type: in vivo, C57BL/6J mice; details: mouse, iv, total radioactivity, C57BL/6J mice, B16F10 melanoma
Protocol: as §1, §2

[3] = system: SK-MEL-1 human melanoma; test: SPECT/CT imaging of mice bearing SK-MEL-1 human melanoma; assay type: in vivo, NRG mice; details: 24 h p.i.
Protocol: SPECT/CT imaging experiments were conducted using the same conditions as described in Example 3. […] (FIG. 6).

In the case of `CCCC[C@H](NC(=O)CN1CCC(NC(=O)[C@H](CCCCNC(=O)CN2CCN(CC(=O)O)CCN(CC(=O)O)CCN(CC(=O)O)CC2)NC(=O)[C@H](CCC(=O)O)NC(=O)CCCc2ccc(I)cc2)CC1)C(=O)N[C@H]1CC(=O)NCCCC[C@@H](C(N)=O)N(C)C(=O)[C@H](Cc2c[nH]c3ccccc23)NC(=O)[C@H](CCCNC(=N)N)N(C)C(=O)[C@@H](Cc2ccccc2)NC(=O)[C@H](Cc2c[nH]cn2)NC1=O` [^177Lu-labeled CCZ01118, metal not drawn], the “Biodistribution, B16F10 tumour” value ([1]; 1 h p.i.) is reported as 24.4 ± 1.76 % ID/g, the “Biodistribution, B16F10 tumour” value ([1]; 4 h p.i.) is reported as 29.7 ± 5.23 % ID/g and the “Biodistribution, B16F10 tumour” value ([1]; 24 h p.i.) is reported as 18.4 ± 1.35 % ID/g. The “Biodistribution, B16F10 tumour” value ([1]; 120 h p.i.) was 2.63 ± 0.21 % ID/g, the tissue uptake at 1 h ([2]; male, seminal glands, 1 h p.i., read-out: Biodistribution, Seminal glands) was 0.5 ± 0.11 %ID/g and the tissue uptake at 4 h ([2]; male, seminal glands, 4 h p.i., read-out: Biodistribution, Seminal glands) was 0.15 ± 0.06 %ID/g. It also gave a tissue uptake at 24 h ([2]; male, seminal glands, 24 h p.i., read-out: Biodistribution, Seminal glands) of 0.04 ± 0.01 %ID/g, a tissue uptake at 120 h ([2]; male, seminal glands, 120 h p.i., read-out: Biodistribution, Seminal glands) of 0.02 ± 0.01 %ID/g and a tissue uptake at 1 h ([2]; male, testes, 1 h p.i., read-out: Biodistribution, Testes) of 1.07 ± 0.11 %ID/g. It also gave a tissue uptake at 4 h ([2]; male, testes, 4 h p.i., read-out: Biodistribution, Testes) of 0.4 ± 0.14 %ID/g, a tissue uptake at 24 h ([2]; male, testes, 24 h p.i., read-out: Biodistribution, Testes) of 0.16 ± 0.02 %ID/g and a tissue uptake at 120 h ([2]; male, testes, 120 h p.i., read-out: Biodistribution, Testes) of 0.1 ± 0.01 %ID/g. The tissue uptake at 1 h ([2]; adrenal glands, 1 h p.i., read-out: Biodistribution, Adrenal glands) was 2.9 ± 1.51 %ID/g, the tissue uptake at 4 h ([2]; adrenal glands, 4 h p.i., read-out: Biodistribution, Adrenal glands) was 0.54 ± 0.48 %ID/g and the tissue uptake at 24 h ([2]; adrenal glands, 24 h p.i., read-out: Biodistribution, Adrenal glands) was 0.2 ± 0.09 %ID/g. It also gave a tissue uptake at 120 h ([2]; adrenal glands, 120 h p.i., read-out: Biodistribution, Adrenal glands) of 0.18 ± 0.06 %ID/g, a tissue uptake at 1 h ([2]; blood, 1 h p.i., read-out: Biodistribution, Blood) of 6.87 ± 0.88 %ID/g and a tissue uptake at 4 h ([2]; blood, 4 h p.i., read-out: Biodistribution, Blood) of 1.41 ± 0.6 %ID/g. The tissue uptake at 24 h ([2]; blood, 24 h p.i., read-out: Biodistribution, Blood) was 0.05 ± 0.02 %ID/g, the tissue uptake at 120 h ([2]; blood, 120 h p.i., read-out: Biodistribution, Blood) was 0.01 %ID/g and the tissue uptake at 1 h ([2]; bone, 1 h p.i., read-out: Biodistribution, Bone) was 0.96 ± 0.18 %ID/g. The tissue uptake at 4 h ([2]; bone, 4 h p.i., read-out: Biodistribution, Bone) was 0.29 ± 0.11 %ID/g, the tissue uptake at 24 h ([2]; bone, 24 h p.i., read-out: Biodistribution, Bone) was 0.13 ± 0.03 %ID/g and the tissue uptake at 120 h ([2]; bone, 120 h p.i., read-out: Biodistribution, Bone) was 0.12 ± 0.04 %ID/g. It also gave a tissue uptake at 1 h ([2]; brain, 1 h p.i., read-out: Biodistribution, Brain) of 0.13 ± 0.01 %ID/g, a tissue uptake at 4 h ([2]; brain, 4 h p.i., read-out: Biodistribution, Brain) of 0.03 ± 0.02 %ID/g and a tissue uptake at 24 h ([2]; brain, 24 h p.i., read-out: Biodistribution, Brain) of 0.01 %ID/g. For the same molecule, the tissue uptake at 120 h ([2]; brain, 120 h p.i., read-out: Biodistribution, Brain) was 0.01 %ID/g, the tissue uptake at 1 h ([2]; fat, 1 h p.i., read-out: Biodistribution, Fat) was 0.43 ± 0.08 %ID/g and the tissue uptake at 4 h ([2]; fat, 4 h p.i., read-out: Biodistribution, Fat) was 0.12 ± 0.03 %ID/g. It also gave a tissue uptake at 24 h ([2]; fat, 24 h p.i., read-out: Biodistribution, Fat) of 0.03 ± 0.01 %ID/g, a tissue uptake at 120 h ([2]; fat, 120 h p.i., read-out: Biodistribution, Fat) of 0.02 ± 0.01 %ID/g and a tissue uptake at 1 h ([2]; heart, 1 h p.i., read-out: Biodistribution, Heart) of 1.93 ± 0.16 %ID/g. For the same molecule, the tissue uptake at 4 h ([2]; heart, 4 h p.i., read-out: Biodistribution, Heart) was 0.45 ± 0.19 %ID/g, the tissue uptake at 24 h ([2]; heart, 24 h p.i., read-out: Biodistribution, Heart) was 0.08 ± 0.01 %ID/g and the tissue uptake at 120 h ([2]; heart, 120 h p.i., read-out: Biodistribution, Heart) was 0.05 %ID/g. For the same molecule, the tissue uptake at 1 h ([2]; intestine, 1 h p.i., read-out: Biodistribution, Intestine) was 1.2 ± 0.2 %ID/g, the tissue uptake at 4 h ([2]; intestine, 4 h p.i., read-out: Biodistribution, Intestine) was 1.53 ± 2.04 %ID/g and the tissue uptake at 24 h ([2]; intestine, 24 h p.i., read-out: Biodistribution, Intestine) was 0.21 ± 0.05 %ID/g. It also gave a tissue uptake at 120 h ([2]; intestine, 120 h p.i., read-out: Biodistribution, Intestine) of 0.1 ± 0.04 %ID/g, a tissue uptake at 1 h ([2]; kidneys, 1 h p.i., read-out: Biodistribution, Kidneys) of 12 ± 0.83 %ID/g and a tissue uptake at 4 h ([2]; kidneys, 4 h p.i., read-out: Biodistribution, Kidneys) of 12.7 ± 3.58 %ID/g. It also gave a tissue uptake at 24 h ([2]; kidneys, 24 h p.i., read-out: Biodistribution, Kidneys) of 6.32 ± 0.43 %ID/g, a tissue uptake at 120 h ([2]; kidneys, 120 h p.i., read-out: Biodistribution, Kidneys) of 1.43 ± 0.31 %ID/g and a tissue uptake at 1 h ([2]; liver, 1 h p.i., read-out: Biodistribution, Liver) of 3.65 ± 0.25 %ID/g. The tissue uptake at 4 h ([2]; liver, 4 h p.i., read-out: Biodistribution, Liver) was 3.58 ± 0.85 %ID/g, the tissue uptake at 24 h ([2]; liver, 24 h p.i., read-out: Biodistribution, Liver) was 2.59 ± 0.31 %ID/g and the tissue uptake at 120 h ([2]; liver, 120 h p.i., read-out: Biodistribution, Liver) was 1.25 ± 0.51 %ID/g. It also gave a tissue uptake at 1 h ([2]; lungs, 1 h p.i., read-out: Biodistribution, Lungs) of 6.71 ± 3.02 %ID/g, a tissue uptake at 4 h ([2]; lungs, 4 h p.i., read-out: Biodistribution, Lungs) of 2.34 ± 0.63 %ID/g and a tissue uptake at 24 h ([2]; lungs, 24 h p.i., read-out: Biodistribution, Lungs) of 0.33 ± 0.08 %ID/g. It also gave a tissue uptake at 120 h ([2]; lungs, 120 h p.i., read-out: Biodistribution, Lungs) of 0.14 ± 0.08 %ID/g, a tissue uptake at 1 h ([2]; muscle, 1 h p.i., read-out: Biodistribution, Muscle) of 0.75 ± 0.09 %ID/g and a tissue uptake at 4 h ([2]; muscle, 4 h p.i., read-out: Biodistribution, Muscle) of 0.18 ± 0.09 %ID/g. It also gave a tissue uptake at 24 h ([2]; muscle, 24 h p.i., read-out: Biodistribution, Muscle) of 0.03 ± 0.01 %ID/g, a tissue uptake at 120 h ([2]; muscle, 120 h p.i., read-out: Biodistribution, Muscle) of 0.02 %ID/g and a tissue uptake at 1 h ([2]; pancreas, 1 h p.i., read-out: Biodistribution, Pancreas) of 1.13 ± 0.24 %ID/g. For the same molecule, the tissue uptake at 4 h ([2]; pancreas, 4 h p.i., read-out: Biodistribution, Pancreas) was 0.31 ± 0.08 %ID/g, the tissue uptake at 24 h ([2]; pancreas, 24 h p.i., read-out: Biodistribution, Pancreas) was 0.08 ± 0.02 %ID/g and the tissue uptake at 120 h ([2]; pancreas, 120 h p.i., read-out: Biodistribution, Pancreas) was 0.05 ± 0.01 %ID/g. It also gave a tissue uptake at 1 h ([2]; spleen, 1 h p.i., read-out: Biodistribution, Spleen) of 2.06 ± 0.21 %ID/g, a tissue uptake at 4 h ([2]; spleen, 4 h p.i., read-out: Biodistribution, Spleen) of 1.02 ± 0.27 %ID/g and a tissue uptake at 24 h ([2]; spleen, 24 h p.i., read-out: Biodistribution, Spleen) of 0.64 ± 0.09 %ID/g. It also gave a tissue uptake at 120 h ([2]; spleen, 120 h p.i., read-out: Biodistribution, Spleen) of 0.35 ± 0.15 %ID/g, a tissue uptake at 1 h ([2]; stomach, 1 h p.i., read-out: Biodistribution, Stomach) of 0.74 ± 0.18 %ID/g and a tissue uptake at 4 h ([2]; stomach, 4 h p.i., read-out: Biodistribution, Stomach) of 2.33 ± 4.11 %ID/g. For the same molecule, the tissue uptake at 24 h ([2]; stomach, 24 h p.i., read-out: Biodistribution, Stomach) was 0.42 ± 0.13 %ID/g, the tissue uptake at 120 h ([2]; stomach, 120 h p.i., read-out: Biodistribution, Stomach) was 0.2 ± 0.09 %ID/g and the tissue uptake at 1 h ([2]; thyroid, 1 h p.i., read-out: Biodistribution, Thyroid) was 2.47 ± 0.26 %ID/g. It also gave a tissue uptake at 4 h ([2]; thyroid, 4 h p.i., read-out: Biodistribution, Thyroid) of 1.66 ± 0.42 %ID/g, a tissue uptake at 24 h ([2]; thyroid, 24 h p.i., read-out: Biodistribution, Thyroid) of 1.59 ± 0.15 %ID/g and a tissue uptake at 120 h ([2]; thyroid, 120 h p.i., read-out: Biodistribution, Thyroid) of 1.03 ± 0.24 %ID/g. For the same molecule, the tissue to tissue ratio at 1 h ([2]; tumour/blood, 1 h p.i., read-out: Tumour/blood) was 3.58 ± 0.31, the tissue to tissue ratio at 4 h ([2]; tumour/blood, 4 h p.i., read-out: Tumour/blood) was 24.3 ± 9.37 and the tissue to tissue ratio at 24 h ([2]; tumour/blood, 24 h p.i., read-out: Tumour/blood) was 397 ± 123. It also gave a tissue to tissue ratio at 120 h ([2]; tumour/blood, 120 h p.i., read-out: Tumour/blood) of 339 ± 149, a tissue to tissue ratio at 1 h ([2]; tumour/kidney, 1 h p.i., read-out: Tumour/kidney) of 2.04 ± 0.15 and a tissue to tissue ratio at 4 h ([2]; tumour/kidney, 4 h p.i., read-out: Tumour/kidney) of 2.47 ± 0.8. For the same molecule, the tissue to tissue ratio at 24 h ([2]; tumour/kidney, 24 h p.i., read-out: Tumour/kidney) was 2.91 ± 0.2, the tissue to tissue ratio at 120 h ([2]; tumour/kidney, 120 h p.i., read-out: Tumour/kidney) was 1.89 ± 0.37 and the tissue to tissue ratio at 1 h ([2]; tumour/muscle, 1 h p.i., read-out: Tumour/muscle) was 32.9 ± 2.98. The tissue to tissue ratio at 4 h ([2]; tumour/muscle, 4 h p.i., read-out: Tumour/muscle) was 194 ± 82.7, the tissue to tissue ratio at 24 h ([2]; tumour/muscle, 24 h p.i., read-out: Tumour/muscle) was 556 ± 108 and the tissue to tissue ratio at 120 h ([2]; tumour/muscle, 120 h p.i., read-out: Tumour/muscle) was 173 ± 19. It also gave an excreta dose per gram or mL at 1 h ([2]; urine, 1 h p.i.) of 158 ± 83.1 %ID/g, an excreta dose per gram or mL at 4 h ([2]; urine, 4 h p.i.) of 124 ± 8.4 %ID/g and an excreta dose per gram or mL at 24 h ([2]; urine, 24 h p.i.) of 4.39 ± 2.89 %ID/g. The excreta dose per gram or mL at 120 h ([2]; urine, 120 h p.i.) was 1.11 ± 0.72 %ID/g and the “Tumour uptake / retention in SPECT images” value [3] was “lower tumour uptake was observed”.
